According to ChEMBL document CHEMBL5291721, “A preclinical secondary pharmacology resource illuminates target-adverse drug reaction associations of marketed drugs” (Nat Commun, 2023):

How the values were obtained:
[1] = biological target: T1, Prostaglandin G/H synthase 1 (Homo sapiens, UniProt P23219); assay type: functional
[2] = biological target: 3',5'-cyclic-AMP phosphodiesterase 4A (Homo sapiens, UniProt P27815); assay type: functional
Mu-type opioid receptor = Mu-type opioid receptor (Homo sapiens, UniProt P35372)
Mu-type opioid receptor, sequence (P35372 whole entry): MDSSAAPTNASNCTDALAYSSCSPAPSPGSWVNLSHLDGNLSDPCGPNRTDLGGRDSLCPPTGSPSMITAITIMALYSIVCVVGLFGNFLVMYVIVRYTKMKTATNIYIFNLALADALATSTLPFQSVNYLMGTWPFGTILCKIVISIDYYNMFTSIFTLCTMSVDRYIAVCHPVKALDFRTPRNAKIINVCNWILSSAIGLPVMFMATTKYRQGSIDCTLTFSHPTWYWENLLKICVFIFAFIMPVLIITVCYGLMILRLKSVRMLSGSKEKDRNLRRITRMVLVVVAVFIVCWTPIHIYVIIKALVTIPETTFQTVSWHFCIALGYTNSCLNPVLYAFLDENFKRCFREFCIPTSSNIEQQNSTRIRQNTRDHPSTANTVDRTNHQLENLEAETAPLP

[3] = biological target: T1, Prostaglandin G/H synthase 1; assay type: functional; remark: listed apart in the source
[4] = biological target: 5-hydroxytryptamine receptor 2B (Homo sapiens, UniProt P41595); assay type: functional, cell-based
5-hydroxytryptamine receptor 2B, sequence (P41595 whole entry): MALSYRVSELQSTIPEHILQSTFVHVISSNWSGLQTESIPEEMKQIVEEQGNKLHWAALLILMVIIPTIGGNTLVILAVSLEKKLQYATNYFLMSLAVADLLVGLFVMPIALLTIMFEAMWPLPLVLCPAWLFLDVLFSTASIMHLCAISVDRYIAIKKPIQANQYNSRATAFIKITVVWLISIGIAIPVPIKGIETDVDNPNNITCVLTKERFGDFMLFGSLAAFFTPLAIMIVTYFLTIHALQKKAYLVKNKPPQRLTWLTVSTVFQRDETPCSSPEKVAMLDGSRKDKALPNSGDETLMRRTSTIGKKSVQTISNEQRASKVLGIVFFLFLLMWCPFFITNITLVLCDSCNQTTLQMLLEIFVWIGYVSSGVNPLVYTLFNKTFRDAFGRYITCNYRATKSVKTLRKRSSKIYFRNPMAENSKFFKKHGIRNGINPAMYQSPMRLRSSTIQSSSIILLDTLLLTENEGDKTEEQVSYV

Prothrombin = Prothrombin (Homo sapiens, UniProt P00734); assay type: functional
Progesterone receptor = biological target: T2, Progesterone receptor (Homo sapiens, UniProt P06401)
T2 sequence (P06401 whole entry): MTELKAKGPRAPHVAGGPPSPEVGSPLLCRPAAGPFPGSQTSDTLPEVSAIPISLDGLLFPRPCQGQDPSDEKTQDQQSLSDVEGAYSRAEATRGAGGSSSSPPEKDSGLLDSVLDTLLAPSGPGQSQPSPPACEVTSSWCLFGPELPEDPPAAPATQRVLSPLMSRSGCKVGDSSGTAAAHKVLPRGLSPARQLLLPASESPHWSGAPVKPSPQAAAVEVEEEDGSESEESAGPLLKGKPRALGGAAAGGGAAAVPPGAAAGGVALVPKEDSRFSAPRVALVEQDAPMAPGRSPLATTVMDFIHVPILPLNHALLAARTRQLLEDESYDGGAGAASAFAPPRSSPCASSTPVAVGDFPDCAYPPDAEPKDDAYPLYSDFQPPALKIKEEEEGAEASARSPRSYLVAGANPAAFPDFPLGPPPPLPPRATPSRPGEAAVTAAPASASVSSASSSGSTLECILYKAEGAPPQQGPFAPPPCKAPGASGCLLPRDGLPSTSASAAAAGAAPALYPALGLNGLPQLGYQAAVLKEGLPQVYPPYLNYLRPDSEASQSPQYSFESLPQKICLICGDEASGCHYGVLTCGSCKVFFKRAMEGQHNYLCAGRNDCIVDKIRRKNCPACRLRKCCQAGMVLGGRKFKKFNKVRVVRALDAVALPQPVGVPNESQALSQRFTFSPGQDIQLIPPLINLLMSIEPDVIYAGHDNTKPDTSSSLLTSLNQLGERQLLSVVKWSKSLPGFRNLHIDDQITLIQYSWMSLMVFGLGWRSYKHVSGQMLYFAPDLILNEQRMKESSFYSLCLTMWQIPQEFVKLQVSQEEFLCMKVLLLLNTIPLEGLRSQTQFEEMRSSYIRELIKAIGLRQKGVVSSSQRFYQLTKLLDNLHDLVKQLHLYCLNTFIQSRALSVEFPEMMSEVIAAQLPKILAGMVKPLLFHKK

Histamine H3 receptor = Histamine H3 receptor (Homo sapiens, UniProt Q9Y5N1)
Histamine H3 receptor, sequence (Q9Y5N1 whole entry): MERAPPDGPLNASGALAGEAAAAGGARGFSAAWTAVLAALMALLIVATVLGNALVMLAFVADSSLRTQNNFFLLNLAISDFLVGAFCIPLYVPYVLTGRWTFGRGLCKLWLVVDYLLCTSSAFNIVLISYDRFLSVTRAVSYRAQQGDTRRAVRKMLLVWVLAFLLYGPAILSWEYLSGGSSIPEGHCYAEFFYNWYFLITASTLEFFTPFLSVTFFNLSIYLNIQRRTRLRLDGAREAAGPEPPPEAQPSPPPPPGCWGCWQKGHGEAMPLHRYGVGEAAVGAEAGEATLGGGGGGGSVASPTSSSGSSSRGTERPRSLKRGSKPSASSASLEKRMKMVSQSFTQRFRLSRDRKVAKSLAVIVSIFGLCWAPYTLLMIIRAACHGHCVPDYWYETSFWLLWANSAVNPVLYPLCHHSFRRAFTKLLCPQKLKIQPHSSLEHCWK

[5] = biological target: T3, Muscarinic acetylcholine receptor M1 (Homo sapiens, UniProt P11229); assay type: functional, cell-based
T3 sequence (P11229 whole entry): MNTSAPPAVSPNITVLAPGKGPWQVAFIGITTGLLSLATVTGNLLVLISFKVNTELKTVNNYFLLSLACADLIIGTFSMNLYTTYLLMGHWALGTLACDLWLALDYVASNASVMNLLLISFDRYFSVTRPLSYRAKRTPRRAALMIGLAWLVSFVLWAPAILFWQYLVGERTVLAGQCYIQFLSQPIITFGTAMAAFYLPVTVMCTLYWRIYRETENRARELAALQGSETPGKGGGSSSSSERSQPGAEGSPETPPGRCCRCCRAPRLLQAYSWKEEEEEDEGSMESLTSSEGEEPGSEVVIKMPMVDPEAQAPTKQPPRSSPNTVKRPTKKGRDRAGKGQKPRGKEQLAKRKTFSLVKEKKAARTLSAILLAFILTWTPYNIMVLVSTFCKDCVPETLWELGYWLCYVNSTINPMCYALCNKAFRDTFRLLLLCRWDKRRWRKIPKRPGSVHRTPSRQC

[6] = biological target: T4, Alpha-1A adrenergic receptor (Homo sapiens, UniProt P35348); assay type: functional, cell-based
T4 sequence (P35348 whole entry): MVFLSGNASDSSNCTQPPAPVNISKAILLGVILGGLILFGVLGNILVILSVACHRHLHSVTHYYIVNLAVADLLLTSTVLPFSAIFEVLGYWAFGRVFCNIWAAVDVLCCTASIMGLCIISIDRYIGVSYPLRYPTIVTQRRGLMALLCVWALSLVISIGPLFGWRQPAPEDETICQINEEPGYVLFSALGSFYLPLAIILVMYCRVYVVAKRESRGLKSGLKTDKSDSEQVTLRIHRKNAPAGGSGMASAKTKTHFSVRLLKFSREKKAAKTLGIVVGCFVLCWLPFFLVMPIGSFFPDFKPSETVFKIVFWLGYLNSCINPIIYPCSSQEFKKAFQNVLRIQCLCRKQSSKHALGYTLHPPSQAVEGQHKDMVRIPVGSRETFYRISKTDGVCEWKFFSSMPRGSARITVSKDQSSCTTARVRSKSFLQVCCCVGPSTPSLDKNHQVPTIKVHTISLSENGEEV

[7] = biological target: T5, Alpha-2A adrenergic receptor (Homo sapiens, UniProt P08913)
T5 sequence (P08913 whole entry): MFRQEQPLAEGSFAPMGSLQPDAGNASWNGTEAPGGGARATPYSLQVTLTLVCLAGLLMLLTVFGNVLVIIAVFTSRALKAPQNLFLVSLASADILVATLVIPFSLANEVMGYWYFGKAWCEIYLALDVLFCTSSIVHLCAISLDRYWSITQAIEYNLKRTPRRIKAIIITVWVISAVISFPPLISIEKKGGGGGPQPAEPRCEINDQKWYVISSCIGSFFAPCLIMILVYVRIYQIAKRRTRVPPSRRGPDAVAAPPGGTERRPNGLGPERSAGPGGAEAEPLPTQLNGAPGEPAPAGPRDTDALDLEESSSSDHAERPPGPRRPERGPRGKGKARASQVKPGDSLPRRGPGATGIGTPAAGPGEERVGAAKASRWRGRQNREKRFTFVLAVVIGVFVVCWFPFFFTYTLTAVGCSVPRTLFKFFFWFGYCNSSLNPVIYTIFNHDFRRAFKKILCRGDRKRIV
Further: assay procedure not described here.

T1 sequence (P23219 whole entry): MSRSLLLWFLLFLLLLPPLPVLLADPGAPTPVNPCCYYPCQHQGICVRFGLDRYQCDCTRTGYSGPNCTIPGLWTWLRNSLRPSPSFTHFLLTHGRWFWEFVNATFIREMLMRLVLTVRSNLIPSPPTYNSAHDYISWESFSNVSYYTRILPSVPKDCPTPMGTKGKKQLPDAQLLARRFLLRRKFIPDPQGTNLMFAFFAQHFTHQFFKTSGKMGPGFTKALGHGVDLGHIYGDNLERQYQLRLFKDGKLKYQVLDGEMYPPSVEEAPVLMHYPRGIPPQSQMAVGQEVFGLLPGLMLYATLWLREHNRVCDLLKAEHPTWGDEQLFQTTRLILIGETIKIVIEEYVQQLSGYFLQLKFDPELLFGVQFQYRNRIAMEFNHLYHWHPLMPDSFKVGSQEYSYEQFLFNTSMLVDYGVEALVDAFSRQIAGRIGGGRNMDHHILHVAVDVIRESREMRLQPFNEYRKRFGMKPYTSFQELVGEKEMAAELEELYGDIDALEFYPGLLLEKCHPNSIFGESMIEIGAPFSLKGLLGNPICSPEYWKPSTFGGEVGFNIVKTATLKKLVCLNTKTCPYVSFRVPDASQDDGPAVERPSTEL
3',5'-cyclic-AMP phosphodiesterase 4A, sequence (P27815 whole entry): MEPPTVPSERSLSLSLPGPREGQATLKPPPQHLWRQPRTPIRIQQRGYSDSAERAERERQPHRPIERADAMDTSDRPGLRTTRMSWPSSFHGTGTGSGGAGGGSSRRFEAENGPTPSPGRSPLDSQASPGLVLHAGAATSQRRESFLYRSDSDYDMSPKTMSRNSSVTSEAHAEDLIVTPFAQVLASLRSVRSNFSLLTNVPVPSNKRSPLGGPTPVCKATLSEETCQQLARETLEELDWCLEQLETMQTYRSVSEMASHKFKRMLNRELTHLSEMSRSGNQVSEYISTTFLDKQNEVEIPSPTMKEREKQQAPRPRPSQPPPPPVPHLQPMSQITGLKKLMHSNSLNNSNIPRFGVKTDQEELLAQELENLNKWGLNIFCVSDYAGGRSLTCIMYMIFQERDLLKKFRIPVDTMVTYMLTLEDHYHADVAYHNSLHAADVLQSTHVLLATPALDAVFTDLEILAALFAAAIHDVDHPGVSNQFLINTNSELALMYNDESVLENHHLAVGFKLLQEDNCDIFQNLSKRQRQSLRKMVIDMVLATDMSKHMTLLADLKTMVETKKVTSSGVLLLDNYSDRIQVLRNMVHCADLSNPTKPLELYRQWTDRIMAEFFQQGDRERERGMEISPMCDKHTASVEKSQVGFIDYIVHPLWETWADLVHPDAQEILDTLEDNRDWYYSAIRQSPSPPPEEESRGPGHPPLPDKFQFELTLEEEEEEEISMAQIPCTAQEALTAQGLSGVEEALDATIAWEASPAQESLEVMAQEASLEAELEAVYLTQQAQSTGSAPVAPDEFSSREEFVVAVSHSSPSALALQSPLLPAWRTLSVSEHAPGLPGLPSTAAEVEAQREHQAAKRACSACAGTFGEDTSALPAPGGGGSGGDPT

Row | Structure (SMILES) | AC50 [1] | AC50 [2] | AC50 (Mu-type opioid receptor) | AC50 [3] | AC50 [4] | AC50 (Prothrombin) | AC50 (Progesterone receptor) | AC50 (Histamine H3 receptor) | AC50 [5] | AC50 [6] | AC50 [7]
1 | COc1cc2nc(N3CCN(C(=O)c4ccco4)CC3)nc(N)c2cc1OC [PRAZOSIN] | > 30 µM | > 30 µM | 17.5 µM | > 30 µM | > 30 µM | > 10 µM | > 30 µM | > 30 µM |  |  | 
2 | C=CCN1C[C@H](C(=O)N(CCCN(C)C)C(=O)NCC)C[C@@H]2c3cccc4[nH]cc(c34)C[C@H]21 [CABERGOLINE] | > 30 µM | > 30 µM | > 30 µM | > 30 µM | 0.0032 µM | > 30 µM | > 30 µM | > 30 µM | > 30 µM |  | 
3 | CCN1CCCC1CNC(=O)c1cc(S(N)(=O)=O)ccc1OC (stereo unspecified) [SULPIRIDE] | 15.8 µM | > 30 µM | > 30 µM | 11.7 µM | > 30 µM | > 30 µM | > 30 µM | > 30 µM |  | > 30 µM | 7.52 µM
4 | O=c1[nH]c(=O)n([C@H]2C[C@H](O)[C@@H](CO)O2)cc1F [FLOXURIDINE] | > 30 µM | > 30 µM | > 30 µM | > 30 µM | > 30 µM | > 30 µM | > 30 µM | > 30 µM |  | > 30 µM | > 30 µM
5 | CCCC1O[C@@H]2C[C@H]3[C@@H]4CCC5=CC(=O)C=C[C@]5(C)[C@H]4[C@@H](O)C[C@]3(C)[C@]2(C(=O)CO)O1 (stereo partly specified) [BUDESONIDE] | > 30 µM | > 30 µM | > 30 µM | > 30 µM | > 30 µM | > 30 µM |  | > 30 µM |  | > 30 µM | > 30 µM
6 | CC[C@]1(O)C[C@H]2CN(CCc3c([nH]c4ccccc34)[C@@](C(=O)OC)(c3cc4c(cc3OC)N(C=O)[C@H]3[C@@](O)(C(=O)OC)[C@H](OC(C)=O)[C@]5(CC)C=CCN6CC[C@]43[C@@H]65)C2)C1 [VINCRISTINE] | 5.73 µM | > 30 µM | > 30 µM | 11.2 µM | > 30 µM | > 30 µM | > 30 µM | > 30 µM |  | > 30 µM | > 30 µM
7 | COc1ccccc1N1CCN(CC(O)COc2cccc3ccccc23)CC1 (stereo unspecified) [NAFTOPIDIL] | > 30 µM | > 30 µM | 0.9 µM | > 30 µM | > 30 µM | > 30 µM | > 30 µM | > 30 µM |  |  | 0.29 µM
8 | Cc1cc(C)c(NC(=O)CN(CC(=O)O)CC(=O)O)c(C)c1Br [MEBROFENIN] | > 30 µM | > 30 µM | > 30 µM | > 30 µM | > 30 µM | > 30 µM | > 30 µM | > 30 µM |  |  | > 30 µM
9 | CC[C@H]1CN2CCc3cc(OC)c(OC)cc3[C@@H]2C[C@@H]1C[C@H]1NCCc2cc(OC)c(OC)cc21 [EMETINE] | > 30 µM | > 30 µM | 5.99 µM | > 30 µM | > 30 µM | > 30 µM | > 30 µM | > 30 µM |  |  | 0.09 µM
10 | O=c1[nH]c(=O)n(C2CCCO2)cc1F (stereo unspecified) [TEGAFUR] | > 30 µM | > 30 µM | > 30 µM | > 30 µM | > 30 µM | > 30 µM | > 30 µM | > 30 µM |  | > 30 µM | > 30 µM
11 | Cc1oc(=O)oc1CN1CCN(c2cc3c(cc2F)c(=O)c(C(=O)O)c2n3C(C)S2)CC1 (stereo unspecified) [PRULIFLOXACIN] | > 30 µM | > 30 µM | > 30 µM | > 30 µM | > 30 µM | > 30 µM | > 30 µM | > 30 µM |  |  | > 30 µM
12 | C=CCCCCCCCCC(=O)O [UNDECYLENIC ACID] | > 30 µM | > 30 µM | > 30 µM | > 30 µM | > 30 µM | > 30 µM | > 30 µM | > 30 µM |  |  | > 30 µM
13 | Clc1cc(Cl)c(OCC#CI)cc1Cl [HALOPROGIN] | > 30 µM | > 30 µM | 12.3 µM | > 30 µM | > 30 µM | > 30 µM | > 30 µM | > 30 µM |  | > 30 µM | 17.7 µM
14 | Nc1nc2nc[nH]c2c(=S)[nH]1 [THIOGUANINE] | 1.32 µM | > 30 µM | > 30 µM | 0.81 µM | > 30 µM | > 30 µM | > 30 µM | > 30 µM |  | > 30 µM | > 30 µM
15 | O=c1[nH]c(=O)n([C@H]2C[C@H](O)[C@@H](CO)O2)cc1I [IDOXURIDINE] | > 30 µM | > 30 µM | > 30 µM | > 30 µM | > 30 µM | > 30 µM | > 30 µM | > 30 µM |  | > 30 µM | > 30 µM
16 | COc1cc2c3cc1Oc1cc(ccc1O)C[C@@H]1c4c(cc(OC)c(O)c4Oc4ccc(cc4)C[C@@H]3N(C)CC2)CC[N+]1(C)C [TUBOCURARINE] | > 30 µM | > 30 µM | 24.1 µM | > 30 µM | > 30 µM | > 30 µM | > 30 µM | > 30 µM |  | > 30 µM | > 30 µM
17 | COc1cc([C@@H]2c3cc4c(cc3[C@H](O)[C@H]3COC(=O)[C@H]23)OCO4)cc(OC)c1OC [PODOFILOX] | > 30 µM | > 10 µM | > 30 µM | > 30 µM | > 30 µM | > 30 µM | > 30 µM | > 30 µM |  | 6.56 µM | > 30 µM
